Assay results published in patent publication US12673041B2, “4-aminobut-2-enamide derivatives and salt thereof” (TAIHO PHARMACEUTICAL CO., LTD., priority 2019, dated 2026).

Columns and labels:
[1] = molecular target: T1, GMPPNP-bound KRAS G12C protein and cRAF RAS-binding domain (cRAF-RBD) (Homo sapiens, UniProt P01116, G12C); assay: Inhibitory activity on interaction between KRAS G12C and cRAF (Alpha technology); type: biochemical; conditions: GMPPNP-bound KRAS G12C incubated with compound at 25° C. for 1 hour, then cRAF-RBD, Alpha signal; read-out: IC50
T1 construct: made in house; host or cells: E. coli
Procedure, shortened: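 GMPPNP-loaded His-KRAS G12C (aa 1-169) preincubated 1 h at 25 °C with compound (pH 7.5 Tris, 1 mM MgCl2, TCEP, Tween 20), then cRAF-RBD (aa 50-132) and Alpha reagents added for 1.5 h at RT. Inhibition scaled between DMSO (0%) and GDP-bound KRAS (100%); IC50 by curve fitting.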

[2] = molecular target: Gppcp-bound recombinant K-Ras4B G12C mutant protein (amino acids 1-169, C51S/C80L/C118S) (Homo sapiens, UniProt P01116, C118S/C51S/C80L/G12C); assay: KRASG12C binding assay (LC-MS compound binding rate); conditions: test compound final concentration 0.5 μM, 25° C., 1 hour
Procedure, shortened: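 Gppcp-bound K-Ras4B G12C (aa 1-169, C51S/C80L/C118S) at 50 nM in 1×TBS, 0.1 mM TCEP, 0.25 mM MgCl2, 50 μM Gppcp was incubated 1 hour at 25° C with compound at 0.5 μM final. Intact-protein LC-MS gave binding rate as single-adduct signal over total KRAS signal, graded A (≥80%) to E (<20%).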

MIA PaCa-2 cells = assay: Growth inhibition activity on KRAS-G12C mutant cell line (MIA PaCa-2); type: cell-based; conditions: Homo sapiens, 72 h; MIA PaCa-2, 3-day culture, CellTiter-Glo 3D
Description: MIA PaCa-2 cells (given by Sumitomo Dainippon Pharma Co., Ltd.), which are a KRAS-G12C mutant human pancreas cancer cell line, were suspended in a 10% fetal bovine serum-containing RPMI1640 medium (manufactured by Fujifilm Wako Pure Chemical Corporation.). The cell suspension was seeded into each well of a 384-well U bottom microplate and cultured in an incubator containing 5% CO2 gas at 37° C. for 1 day. The compounds obtained in the “Preparation of Compounds” section were used as test compounds and were dissolved in DMSO, respectively, and each test compound was diluted with DMSO to give a concentration 500 times the final concentration. The resultant solution of the test compound in DMSO was diluted with the medium used for suspending cells and added to each well of the cell-culture plate to give a DMSO final concentration of 0.2%, followed by culture in an incubator containing 5% CO2 gas at 37° C. for another 3 days. The cell count after 3-day culture in the presence of the test compound was measured using CellTiter-Glo 3D Reagent (manufactured by Promega Corporation). All wells were added with CellTiter-Glo 3D Reagent and mixed for 10 minutes. 30 minutes after mixing, luminescence was measured by a plate reader. The growth inhibition rate was calculated from the following equation, and the concentration of the test compound at which 50% inhibition was achieved (IC50 (nM)) was determined. […] Growth Inhibition Rate (%)=(C−T)/(C)×100 • T: the emission intensity in a well into which a test compound was added. • C: the emission intensity in a well into which a test compound was not added.

IC50 [1] [nM]	IC50 (MIA PaCa-2 cells) [nM]	SMILES	binding rate [2]
84	240	CN(C)C/C=C/C(=O)Nc1ccc(C(=O)c2ccc3c(-c4cc5ncn(C)c5cc4C(F)(F)F)cccn23)cc1C#N [Example 66, (E)-N-(2-cyano-4-(8-(1-methyl-6-(trifluoromethyl)-1H-benzo[d]imidazol-5-yl)indolizine-3-carbonyl)phenyl)-4-(dimethylamino)but-2-enamide]	C (a binding rate of 40% or more and less than 60% is rated “C”)
21	70	COc1cc2c(cc1-c1cccn3c(C(=O)c4ccc(NC(=O)/C=C/CN[C@H]5CC[C@H](OC)CC5)c(C#N)c4)ccc13)ncn2C [Example 81, (E)-N-(2-cyano-4-(8-(6-methoxy-1-methyl-1H-benzo[d]imidazol-5-yl)indolizine-3-carbonyl)phenyl)-4-(((1r,4r)-4-methoxycyclohexyl)amino)but-2-enamide]	A (A binding rate of 80% or more is rated “A”)
35	49	CO[C@H]1CC[C@H](NC/C=C/C(=O)Nc2ccc(C(=O)c3ccc4c(-c5cc6nc(C)n(C)c6cc5C(F)(F)F)cccn34)cc2C#N)CC1 [Example 7, (E)-N-(2-cyano-4-(8-(1,2-dimethyl-6-(trifluoromethyl)-1H-benzo[d]imidazol-5-yl)indolizine-3-carbonyl)phenyl)-4-(((1r,4r)-4-methoxycyclohexyl)amino)but-2-enamide]	A (A binding rate of 80% or more is rated “A”)
19	64	Cc1cc2c(ncn2C)c(Cl)c1-c1cccn2c(C(=O)c3ccc(NC(=O)/C=C/CNC(C)(C)C)c(C#N)c3)ccc12 [Example 59, (E)-4-(tert-butylamino)-N-(4-(8-(4-chloro-1,6-dimethyl-1H-benzo[d]imidazol-5-yl)indolizine-3-carbonyl)-2-cyanophenyl)but-2-enamide]	A (A binding rate of 80% or more is rated “A”)
23	70	CO[C@H]1CC[C@H](NC/C=C/C(=O)Nc2ccc(C(=O)c3ccc4c(-c5cc6ncn(C)c6cc5C(F)F)cccn34)cc2C#N)CC1 [Example 36, (E)-N-(2-cyano-4-(8-(6-(difluoromethyl)-1-methyl-1H-benzo[d]imidazol-5-yl)indolizine-3-carbonyl)phenyl)-4-(((1r,4r)-4-methoxycyclohexyl)amino)but-2-enamide]	A (A binding rate of 80% or more is rated “A”)
86	350	CO[C@H]1CC[C@H](NC/C=C/C(=O)Nc2ccc(C(=O)c3csc4c(-c5cc6ncn(C)c6cc5C)cccc34)cc2C#N)CC1 [Example 56, (E)-N-(2-cyano-4-(7-(1,6-dimethyl-1H-benzo[d]imidazol-5-yl)benzo[b]thiophene-3-carbonyl)phenyl)-4-(((1r,4r)-4-methoxycyclohexyl)amino)but-2-enamide]	A (A binding rate of 80% or more is rated “A”)
45	48	CCc1nc2cc(-c3cccn4c(C(=O)c5ccc(NC(=O)/C=C/CN[C@H]6CC[C@H](OC)CC6)c(C#N)c5)ccc34)c(C(F)(F)F)cc2n1C [Example 33, (E)-N-(2-cyano-4-(8-(2-ethyl-1-methyl-6-(trifluoromethyl)-1H-benzo[d]imidazol-5-yl)indolizine-3-carbonyl)phenyl)-4-(((1r,4r)-4-methoxycyclohexyl)amino)but-2-enamide]	A (A binding rate of 80% or more is rated “A”)
27	310	CCc1cc2c(cc1-c1cccc(NC(=O)c3ccc(NC(=O)/C=C/CN[C@H]4CC[C@H](OC)CC4)c(C#N)c3)c1)nc1n2CCC1 [Example 32, 3-cyano-N-(3-(7-ethyl-2,3-dihydro-1H-benzo[d]pyrrolo[1,2-a]imidazol-6-yl)phenyl)-4-((E)-4-(((1r,4r)-4-methoxycyclohexyl)amino)but-2-enamido)benzamide]	B (a binding rate of 60% or more and less than 80% is rated “B”)
61	350	Cn1cnc2cc(-c3cccn4c(C(=O)c5ccc(NC(=O)/C=C/[C@@H]6CCCN6)c(C#N)c5)ccc34)c(C(F)(F)F)cc21 [Example 44, (S,E)-N-(2-cyano-4-(8-(1-methyl-6-(trifluoromethyl)-1H-benzo[d]imidazol-5-yl)indolizine-3-carbonyl)phenyl)-3-(pyrrolidin-2-yl) acrylamide]	A (A binding rate of 80% or more is rated “A”)
